From patent US12643858B2 (Inipharm, Inc., priority 2020, dated 2026)

Target: T1, HSD17B13 enzyme (Homo sapiens, UniProt Q7Z5P4)
T1 construct: His; made in house; host or cells: E. coli
T1 sequence (Q7Z5P4 20-300): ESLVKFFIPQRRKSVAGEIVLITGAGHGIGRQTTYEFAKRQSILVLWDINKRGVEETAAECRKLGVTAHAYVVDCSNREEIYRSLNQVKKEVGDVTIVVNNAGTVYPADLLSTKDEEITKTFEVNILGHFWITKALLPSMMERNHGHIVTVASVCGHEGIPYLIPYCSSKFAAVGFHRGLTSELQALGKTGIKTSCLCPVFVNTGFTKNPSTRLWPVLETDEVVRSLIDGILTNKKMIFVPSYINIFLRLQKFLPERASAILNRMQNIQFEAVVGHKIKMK
Assay: NADH detection assay (fluorescence based LTB3 assay) for HSD17B13 activity
Type: biochemical
Conditions: substrate 25 μM LTB3, 3 mM NAD+, 125 nM HSD17B13 enzyme, 1 hour at 26.5° C.
Description: Example A: NADH Detection Assay for Evaluation of HSD17ß13 Activity and Identification of Inhibitors
The fluorescence based Leukotriene B3 (LTB3) assay monitors the fluorescence of NADH, which is generated from NAD+ during the dehydrogenation of the substrate LTB3. The reactions were performed in a 384-well plates (Greiner; #655076) in a 20 μl reaction volume containing the following reagents (final concentrations): 25 μM LTB3 (Cayman; #20109); 3 mM NAD+ (Sigma; #N0623); 125 nM HSD17B13 enzyme (in-house; E. coli expressed His-tagged, purified, soluble protein); […] potassium phosphate buffer, pH 7.4; and 1% DMSO. Reactions were initiated by co-addition of NAD+ and enzyme, and monitored for 1 hour at 26.5° C. Generation of NADH was measured as the fluorescence signal (Excitation at 340 nm and Emission at 445 nm) at 1 hour minus the baseline fluorescence at t=0. Fluorescence signals in the absence of LTB3 (negative control values), were subtracted from all values so that the results reflected substrate-dependent production of NADH. NADH standards were included to allow the conversion of relative fluorescence units into rates of enzyme activity. Enzyme activity in the presence of test compounds was expressed as a percentage of the uninhibited enzyme activity, and plotted versus inhibitor concentration. Non-linear regression was performed using a four-parameter logistic model and GraphPad Prism software (GraphPad Software, La Jolla, CA). Ten concentrations of inhibitor were tested (in the range of 30 μM-2.5 nM), and two independent assessments were performed at each concentration.

IC50, 5 to 10 µM:
Oc1cc(Oc2cccc(-c3ccc(F)c(Cl)c3)n2)ccc1F [Example 85, 5-{[6-(3-chloro-4-fluorophenyl)pyridin-2-yl]oxy}-2-fluorophenol]
CNc1nc2cc(-c3cccc(Oc4ccc(F)c(O)c4)n3)ccc2s1 [Example 21]
CN1CCN(S(=O)(=O)c2cccc(-c3cccc(Oc4ccc(F)c(O)c4)n3)c2)CC1 [Example 43, 2-fluoro-5-((6-(3-((4-methylpiperazin-1-yl)sulfonyl)phenyl)pyridin-2-yl)oxy)phenol]
Oc1cccc(-c2cccc(Oc3ccc(F)c(C(F)F)c3)n2)c1F [Example 13, 3-{6-[3-(difluoromethyl)-4-fluorophenoxy]pyridin-2-yl}-2-fluorophenol]
Oc1cc(Oc2cccc(-c3cccs3)n2)ccc1F [Example 8, 2-fluoro-5-((6-(thiophen-2-yl)pyridin-2-yl)oxy) phenol]
O=c1[nH]c2ccc(Oc3cccc(-c4cccc(O)c4F)n3)cc2[nH]1 [Example 41, 5-((6-(2-fluoro-3-hydroxyphenyl)pyridin-2-yl)oxy)-1,3-dihydro-2H-benzo[d]imidazol-2-one]

IC50, ≤ 5 µM:
O=S(=O)(c1cccc(-c2cccc(Oc3ccc(F)c(O)c3)n2)c1)N1CCOCC1 [Example 44, 2-fluoro-5-((6-(3-(morpholinosulfonyl)phenyl)pyridin-2-yl)oxy)phenol]
CN1CCOc2cc(-c3cccc(Oc4ccc(F)c(O)c4)n3)ccc21 [Example 33, 2-fluoro-5-((6-(4-methyl-3,4-dihydro-2H-benzo[b][1,4]oxazin-7-yl)pyridin-2-yl)oxy)phenol]
Nc1nc2cc(-c3cccc(Oc4ccc(F)c(O)c4)n3)ccc2s1 [Example 47, 5-((6-(2-aminobenzo[d]thiazol-5-yl)pyridin-2-yl)oxy)-2-fluorophenol]
Oc1cc(Oc2cccc(-c3ccc(OC(F)(F)F)c(Cl)c3)n2)ccc1F [Example 66, 5-((6-(3-chloro-4-(trifluoromethoxy)phenyl)pyridin-2-yl)oxy)-2-fluorophenol]
Oc1cc(Oc2cccc(-c3ccc(Cl)cc3)n2)ccc1F [Example 82, 5-{[6-(4-chlorophenyl)pyridin-2-yl]oxy}-2-fluorophenol]
Oc1cc(Oc2cccc(-c3cccc(Cl)c3F)n2)ccc1F [Example 86, 5-{[6-(3-chloro-2-fluorophenyl)pyridin-2-yl]oxy}-2-fluorophenol]
Oc1cc(Oc2cccc(-c3ccc4c(c3)OCO4)n2)ccc1F [Example 67, 5-((6-(benzo[d][1,3]dioxol-5-yl)pyridin-2-yl)oxy)-2-fluorophenol]
Oc1cc(Oc2cccc(-c3ccccc3Cl)n2)ccc1F [Example 83, 5-{[6-(2-chlorophenyl)pyridin-2-yl]oxy}-2-fluorophenol]
NC(=O)c1ccc(-c2cccc(O)c2F)nc1Oc1ccc(F)c(O)c1 [Example 25, 2-(4-fluoro-3-hydroxyphenoxy)-6-(2-fluoro-3-hydroxyphenyl)pyridine-3-carboxamide]
Oc1cc(Oc2ccnc(-c3cccc(O)c3F)n2)ccc1F [Example 17, 2-fluoro-3-[4-(4-fluoro-3-hydroxyphenoxy)pyrimidin-2-yl]phenol]
Oc1cc(Oc2cccc(-c3cc(F)cc(F)c3)n2)ccc1F [Example 89, 5-{[6-(3,5-difluorophenyl)pyridin-2-yl]oxy}-2-fluorophenol]

IC50, > 30 µM:
COc1cccc(-c2cccc(Oc3ccc(F)c(C(F)F)c3)n2)c1F [Example 52, 2-[3-(difluoromethyl)-4-fluorophenoxy]-6-(2-fluoro-3-methoxyphenyl) pyridine]
O=C1Cc2ccc(Oc3cccc(-c4cccc(O)c4F)n3)cc2N1 [Example 7]
COc1cccc(-c2cccc(Oc3ccc(F)c(NC(C)=O)c3)n2)c1F [Example 107, N-(2-fluoro-5-{[6-(2-fluoro-3-methoxyphenyl)pyridin-2-yl]oxy}phenyl)acetamide]
CNC(=O)c1cc(Oc2cccc(-c3cccc(OC)c3F)n2)ccc1F [Example 109, 2-fluoro-5-{[6-(2-fluoro-3-methoxyphenyl)pyridin-2-yl]oxy}-N-methylbenzamide]
COc1cccc(-c2cccc(Oc3ccc(=O)n(C(F)F)c3)n2)c1F [Example 112, 1-(difluoromethyl)-5-((6-(2-fluoro-3-methoxyphenyl)pyridin-2-yl)oxy)pyridin-2(1H)-one]
CC(=O)N1CCN(S(=O)(=O)c2cccc(-c3cccc(Oc4ccc(F)c(O)c4)n3)c2)CC1 [Example 42, 1-(4-{3-[6-(4-fluoro-3-hydroxyphenoxy)pyridin-2-yl]benzenesulfonyl}piperazin-1-yl)ethan-1-one]
CC(=O)Nc1nc2cc(-c3cccc(Oc4ccc(F)c(O)c4)n3)ccc2s1 [Example 61, N-(5-(6-(4-fluoro-3-hydroxyphenoxy)pyridin-2-yl)benzo[d]thiazol-2-yl) acetamide]
Oc1cc(Oc2cccc(N3CCOCC3)n2)ccc1F [Example 72, 2-fluoro-5-{[6-(morpholin-4-yl)pyridin-2-yl]oxy}phenol]
Oc1cccc(-c2cccc(Oc3ccc4c(c3)NCCO4)n2)c1F [Example 56, 3-[6-(3,4-dihydro-2H-1,4-benzoxazin-6-yloxy)pyridin-2-yl]-2-fluorophenol]
COc1cccc(-c2cccc(Oc3ccc(F)c(NS(C)(=O)=O)c3)n2)c1F [Example 111, N-(2-fluoro-5-((6-(2-fluoro-3-methoxyphenyl)pyridin-2-yl)oxy)phenyl) methanesulfonamide]
CS(=O)(=O)NCc1cccc(Oc2cccc(-c3cccc(O)c3F)n2)c1 [Example 94, N-[(3-{[6-(2-fluoro-3-hydroxyphenyl)pyridin-2-yl]oxy}phenyl)methyl]methane-sulfonamide]
O=c1ccc(Oc2cccc(-c3cccc(O)c3F)n2)cn1C(F)F [Example 5, 1-(difluoromethyl)-5-((6-(2-fluoro-3-hydroxyphenyl)pyridin-2-yl)oxy)pyridin-2(1H)-one]
CS(=O)(=O)c1cccc(-c2cccc(Oc3ccc(F)c(O)c3)n2)c1 [Example 75, 2-fluoro-5-((6-(3-(methylsulfonyl)phenyl)pyridin-2-yl)oxy)phenol]
Oc1cc(Oc2cccc(-c3cccc(F)c3O)n2)ccc1F [Example 38, 2-fluoro-5-((6-(3-fluoro-2-hydroxyphenyl)pyridin-2-yl)oxy)phenol]
O=C(O)c1cccc(-c2cccc(Oc3ccc(F)c(O)c3)n2)c1 [Example 68, 3-(6-(4-fluoro-3-hydroxyphenoxy)pyridin-2-yl)benzoic acid]
CS(=O)(=O)Nc1cc(Oc2cccc(-c3cccc(O)c3F)n2)ccc1F [Example 57, N-(2-fluoro-5-{[6-(2-fluoro-3-hydroxyphenyl)pyridin-2-yl]oxy}phenyl)methane-sulfonamide]

IC50, 10 to 30 µM:
Oc1cc(Oc2cccc(-c3cc4ccccc4s3)n2)ccc1F [Example 9, 5-((6-(benzo[b]thiophen-2-yl)pyridin-2-yl)oxy)-2-fluorophenol]
